Data on two compounds can be found in patent US20140087003A1, “METHOD FOR TREATING VENOMOUS BITES AND STINGS” (priority 2012, published 2014).

This data set is described as follows: pH of the solution. Format: physicochemical.

For the compound `[K+].[OH-]` [potassium hydroxide], the “pH of strong basic solutions used as high pH controls” value amounted to 14.

`[Na+].[OH-]` [sodium hydroxide]: the “pH of strong basic solutions used as high pH controls” value stood at 14.
